Test: Sensitivity of the drug substance to hydrolysis
Type: physicochemical
Conditions: especially at low pH
Excerpt: Any formulation containing both organic acid as well as drug substance in close contact is therefore at a very high risk to decomposition, particularly in the presence of humidity. Therefore e.g. tartaric acid and active ingredient are kept separate in the formulation until the moment of application. A multiparticulate pellet approach is chosen. The drug substance is layered from an isopropanolic suspension onto seal coated spherical tartaric acid starter cores with approximately 0.6-0.8 mm diameter (FIG. 3 Structure of dabigatran etexilate pellets'.

CCCCCCOC(=O)N=C(N)c1ccc(NCc2nc3cc(C(=O)N(CCC(=O)OCC)c4ccccn4)ccc3n2C)cc1 [Dabigatran etexilate mesilate, dabigatran etexilate methansulfonate]
sensitivity to hydrolysis: sensitive to hydrolysis especially at low pH

— patent US20130183384A1, “IMMEDIATE RELEASE MULTI UNIT PELLET SYSTEM” (BOEHRINGER INGELHEIM INTERNATIONAL GMBH, priority 2011, published 2013)
